ChEMBL document CHEMBL6153135, “Rational Design of a Potent, Selective, and Metabolically Stable CDK9 Inhibitor to Counteract Osimertinib Resistance through Mcl-1 Suppression and Enhanced BRD4 Co-Targeting” (J Med Chem, 2025)
The source made the active and inactive calls. The rule behind the calls is not given here.

Experiments:
[1] = Metabolic stability in human liver S9 fraction assessed as clearance measured for 5 to 60 mins by LC-MS/MS analysis; assay type: ADME, subcellular; conditions: time 5-60 min, read-out: CLH
[2] = Clearance in Sprague-Dawley rat at 2 mg/kg, iv; assay type: ADME, organism-based; conditions: in vivo
[3] = Apparent volume of distribution in BALB/c mouse at 2 mg/kg, iv; assay type: ADME, organism-based; conditions: in vivo, read-out: Vz
[4] = Clearance in BALB/c mouse at 2 mg/kg, iv; assay type: ADME, organism-based; conditions: in vivo
[5] = AUC (0 to t) in BALB/c mouse at 15 mg/kg, po; assay type: ADME, organism-based; conditions: in vivo
[6] = Half life in BALB/c mouse at 15 mg/kg, po; assay type: ADME, organism-based; conditions: in vivo
[7] = Drug concentration in lung of BALB-c nude mouse xenografted with human NCI-H1975 cells at 15 mg/kg, iv measured after 30 mins by LC-MS/MS analysis; assay type: ADME, organism-based; conditions: read-out: Ct
[8] = target: Cyclin-dependent kinase 2/cyclin E1 (Homo sapiens) (UniProt P24864+P24941); assay: Inhibition of CDK2/cyclin E1 (unknown origin) at 100 nM preincubated for 10 mins followed by substrate/ATP measured after 60 mins by ADP-Glo assay relative to control; assay type: protein-complex assay; conditions: time 70.0 min
[9] = target: Glycogen synthase kinase-3 beta (Homo sapiens) (UniProt P49841); assay: Inhibition of GSK3beta (unknown origin) at 100 nM preincubated for 10 mins followed by substrate/ATP measured after 60 mins by ADP-Glo assay relative to control; conditions: time 70.0 min
[10] = target: Homeodomain-interacting protein kinase 3 (Homo sapiens) (UniProt Q9H422); assay: Inhibition of HIPK3 (unknown origin) at 100 nM preincubated for 10 mins followed by substrate/ATP measured after 60 mins by ADP-Glo assay relative to control; conditions: time 70.0 min
[11] = target: CDK3/Cyclin E (Homo sapiens) (UniProt P24864+Q00526); assay: Inhibition of CDK3/Cyclin E1 (unknown origin) at 100 nM preincubated for 10 mins followed by substrate/ATP measured after 60 mins by ADP-Glo assay relative to control; assay type: protein-complex assay; conditions: time 70.0 min
[12] = target: CDK6/cyclin D1 (Homo sapiens) (UniProt P24385+Q00534); assay: Inhibition of CDK6/Cyclin D1(unknown origin) at 100 nM preincubated for 10 mins followed by substrate/ATP measured after 60 mins by ADP-Glo assay relative to control; assay type: protein-complex assay; conditions: time 70.0 min
[13] = system: Osimertinib-resistant NCI-H1975 cell; assay: Inhibition of colony formation in human Osimertinib-resistant NCI-H1975 cells at 25 nM measured after 14 days by crystal violet staining based analysis relative to control; assay type: functional; conditions: 336 h, time 14 day
[14] = system: Osimertinib-resistant NCI-H1975 cell; assay: Induction of apoptosis in human Osimertinib-resistant NCI-H1975 cells assessed as necrotic cells at 0.5 uM incubated for 16 hrs by Annexin V-FITC/PI staining based flow cytometry (reference value: 1.17 %); assay type: functional
[15] = system: Osimertinib-resistant NCI-H1975 cell; assay: Induction of apoptosis in human Osimertinib-resistant NCI-H1975 cells assessed as viable cells at 2 uM incubated for 16 hrs by Annexin V-FITC/PI staining based flow cytometry (reference value: 89.4 %); assay type: functional; conditions: read-out: Activity
[16] = system: Osimertinib-resistant NCI-H1975 cell; assay: Induction of apoptosis in human Osimertinib-resistant NCI-H1975 cells assessed as late apoptotic cells at 2 uM incubated for 16 hrs by Annexin V-FITC/PI staining based flow cytometry (reference value: 1.42 %); assay type: functional
[17] = system: Osimertinib-resistant NCI-H1975 cell; assay: Induction of apoptosis in human Osimertinib-resistant NCI-H1975 cells assessed as necrotic cells at 2 uM incubated for 16 hrs by Annexin V-FITC/PI staining based flow cytometry (reference value: 1.17 %); assay type: functional
[18] = Anti-proliferative activity against human Osimertinib-resistant HCC827 cells assessed as cell inhibition measured after 72 hrs in presence of 100 nM JQ1 by MTT assay; assay type: functional, cell-based
[19] = system: Osimertinib-resistant NCI-H1975 cell; assay: Anti-proliferative activity against human Osimertinib-resistant NCI-H1975 cells assessed as cell inhibition measured after 72 hrs in presence of 500 nM JQ1 by MTT assay; assay type: functional, cell-based
[20] = system: Osimertinib-resistant NCI-H1975 cell; assay: Anti-proliferative activity against human Osimertinib-resistant NCI-H1975 cells assessed as cell inhibition measured after 72 hrs in presence of 250 nM JQ1 by MTT assay; assay type: functional, cell-based
[21] = target: Cyclin-dependent kinase 9 (Homo sapiens) (UniProt P50750); assay: Inhibition of CDK9 in human Osimertinib-resistant HCC827 cells assessed as decrease in Mcl-1 level at 100 to 500 nM incubated for 12 hrs by Western blot analysis; assay type: cell-based; conditions: Osimertinib-resistant HCC827 cell, dose 100-500 nM
[22] = target: Cyclin-dependent kinase 9 (Homo sapiens) (UniProt P50750); assay: Inhibition of CDK9 in human Osimertinib-resistant HCC827 cells assessed as decrease in Mcl-1 mRNA level in presence of JQ1 by RNA-Seq analysis; assay type: cell-based; conditions: Osimertinib-resistant HCC827 cell
[23] = system: Osimertinib-resistant HCC827 cell; assay: Inhibition of chromosome organisation in human Osimertinib-resistant HCC827 cells by KEGG analysis; assay type: functional, cell-based
[24] = system: Lung adenocarcinoma organoid; assay: Anti-tumor activity against Osimertinib-resistant patient (#0416)-derived human Lung adenocarcinoma organoid assessed as inhibition of cell viability measured after 96 hrs; assay type: functional, tissue-based; conditions: Neoplasm
[25] = system: Osimertinib-resistant HCC827 cell; assay: Antitumor activity against human Osimertinib-resistant HCC827 cells xenografted in BALB-c nude mouse assessed as tumor growth inhibition at 5 mg/kg, iv; assay type: functional, organism-based
NCI-H1975 = assay: Antitumor activity against human NCI-H1975 cells xenografted in BALB-c nude mouse at 15 mg/kg, iv administered on every two days relative to control; assay type: functional; conditions: NCI-H1975, 48 h, read-out: TGI
[26] = Toxicity in BALB-c nude mouse xenografted with human NCI-H1975 cells assessed as pathological damage in heart at 15 mg/kg, iv administered on every two days by H and E staining based analysis; assay type: organism-based; conditions: in vivo
[27] = Toxicity in BALB-c nude mouse xenografted with human NCI-H1975 cells assessed as pathological damage in spleen at 15 mg/kg, iv administered on every two days by H and E staining based analysis; assay type: organism-based; conditions: in vivo
[28] = Toxicity in BALB-c nude mouse xenografted with human NCI-H1975 cells assessed as pathological damage in lung at 15 mg/kg, iv administered on every two days by H and E staining based analysis; assay type: organism-based; conditions: in vivo
[29] = Toxicity in BALB-c nude mouse xenografted with human NCI-H1975 cells assessed as pathological damage in kidney at 15 mg/kg, iv administered on every two days by H and E staining based analysis; assay type: organism-based; conditions: in vivo
[30] = Antitumor activity against human Osimertinib-resistant HCC827 cells xenografted in BALB-c nude mouse assessed as tumor growth inhibition at 5 mg/kg, iv in presence of JQ1 relative to control; assay type: functional; conditions: Osimertinib-resistant HCC827 cell, read-out: TGI
Mus musculus = assay: In vivo inhibition of CDK9 in BALB-c nude mouse xenografted with human Osimertinib-resistant HCC827 cells assessed as decrease in Mcl-1 level in tumor tissue at 5 mg/kg, iv in presence of JQ1 by Western blot analysis; assay type: functional, organism-based
[31] = Toxicity in BALB-c mouse xenografted with human Osimertinib-resistant HCC827 cells assessed as decrease in body weight at 5 mg/kg, iv in presence of JQ1; assay type: organism-based; conditions: in vivo

Cyclin-dependent kinase 9 (Homo sapiens), sequence (P50750 whole entry): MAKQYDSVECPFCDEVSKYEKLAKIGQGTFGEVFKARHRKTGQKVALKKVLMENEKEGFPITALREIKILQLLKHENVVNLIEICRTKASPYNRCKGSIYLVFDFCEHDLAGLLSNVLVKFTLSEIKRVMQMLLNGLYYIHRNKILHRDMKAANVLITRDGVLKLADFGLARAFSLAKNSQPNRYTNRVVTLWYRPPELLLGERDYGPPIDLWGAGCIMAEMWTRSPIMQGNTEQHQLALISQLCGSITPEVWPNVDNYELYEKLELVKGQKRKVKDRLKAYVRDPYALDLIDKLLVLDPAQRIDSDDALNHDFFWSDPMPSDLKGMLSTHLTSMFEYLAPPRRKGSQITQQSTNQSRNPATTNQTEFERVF
CDK3/Cyclin E (Homo sapiens), sequence (P24864 whole entry, looked up): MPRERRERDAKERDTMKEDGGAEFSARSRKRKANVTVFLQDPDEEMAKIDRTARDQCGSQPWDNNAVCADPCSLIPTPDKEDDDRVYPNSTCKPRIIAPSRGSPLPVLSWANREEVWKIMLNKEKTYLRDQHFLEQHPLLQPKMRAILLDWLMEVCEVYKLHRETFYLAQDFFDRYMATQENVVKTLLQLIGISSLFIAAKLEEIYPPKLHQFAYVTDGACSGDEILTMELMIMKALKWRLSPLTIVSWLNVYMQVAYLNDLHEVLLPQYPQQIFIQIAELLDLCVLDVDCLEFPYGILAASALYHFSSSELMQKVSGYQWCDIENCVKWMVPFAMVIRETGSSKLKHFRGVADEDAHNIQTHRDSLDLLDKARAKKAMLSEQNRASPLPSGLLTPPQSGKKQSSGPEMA
CDK3/Cyclin E (Homo sapiens), sequence (Q00526 whole entry, looked up): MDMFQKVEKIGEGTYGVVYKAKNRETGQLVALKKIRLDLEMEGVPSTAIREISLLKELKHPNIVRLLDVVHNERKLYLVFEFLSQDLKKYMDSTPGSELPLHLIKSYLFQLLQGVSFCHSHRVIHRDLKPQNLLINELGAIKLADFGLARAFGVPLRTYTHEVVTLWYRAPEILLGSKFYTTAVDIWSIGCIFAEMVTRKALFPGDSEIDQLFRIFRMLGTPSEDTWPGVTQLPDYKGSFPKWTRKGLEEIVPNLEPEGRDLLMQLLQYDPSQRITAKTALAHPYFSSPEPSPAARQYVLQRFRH
Homeodomain-interacting protein kinase 3 (Homo sapiens), sequence (Q9H422 whole entry, looked up): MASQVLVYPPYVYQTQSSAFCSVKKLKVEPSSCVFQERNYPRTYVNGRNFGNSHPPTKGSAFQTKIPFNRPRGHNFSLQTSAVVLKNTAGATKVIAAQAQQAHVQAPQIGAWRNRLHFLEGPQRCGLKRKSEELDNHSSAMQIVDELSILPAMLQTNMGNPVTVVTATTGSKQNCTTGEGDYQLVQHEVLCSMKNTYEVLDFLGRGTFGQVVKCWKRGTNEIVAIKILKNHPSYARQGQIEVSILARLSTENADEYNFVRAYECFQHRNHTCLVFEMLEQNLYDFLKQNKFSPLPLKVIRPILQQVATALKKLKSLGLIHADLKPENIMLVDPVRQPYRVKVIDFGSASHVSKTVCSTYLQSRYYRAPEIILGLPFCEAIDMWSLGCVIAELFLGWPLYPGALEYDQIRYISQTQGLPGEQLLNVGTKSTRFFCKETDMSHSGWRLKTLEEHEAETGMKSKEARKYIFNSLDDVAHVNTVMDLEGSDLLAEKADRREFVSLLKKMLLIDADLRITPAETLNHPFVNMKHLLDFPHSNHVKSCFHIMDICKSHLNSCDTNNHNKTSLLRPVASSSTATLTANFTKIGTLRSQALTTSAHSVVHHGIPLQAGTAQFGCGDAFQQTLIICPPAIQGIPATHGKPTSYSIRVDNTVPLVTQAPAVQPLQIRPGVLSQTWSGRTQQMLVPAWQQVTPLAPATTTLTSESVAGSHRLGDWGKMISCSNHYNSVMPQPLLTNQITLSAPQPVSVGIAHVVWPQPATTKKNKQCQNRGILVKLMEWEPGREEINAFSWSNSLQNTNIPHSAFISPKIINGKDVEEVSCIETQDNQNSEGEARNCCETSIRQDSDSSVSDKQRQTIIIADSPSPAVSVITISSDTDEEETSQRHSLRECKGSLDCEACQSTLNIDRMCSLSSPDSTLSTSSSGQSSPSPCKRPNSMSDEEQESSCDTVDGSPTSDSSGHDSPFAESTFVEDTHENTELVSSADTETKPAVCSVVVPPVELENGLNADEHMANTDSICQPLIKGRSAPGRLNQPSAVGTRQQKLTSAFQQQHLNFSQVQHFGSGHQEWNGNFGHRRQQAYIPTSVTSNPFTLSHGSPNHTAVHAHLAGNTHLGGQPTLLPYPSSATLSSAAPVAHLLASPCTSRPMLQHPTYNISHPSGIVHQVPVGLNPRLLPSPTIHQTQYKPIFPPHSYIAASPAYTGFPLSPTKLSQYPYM
Glycogen synthase kinase-3 beta (Homo sapiens), sequence (P49841 whole entry, looked up): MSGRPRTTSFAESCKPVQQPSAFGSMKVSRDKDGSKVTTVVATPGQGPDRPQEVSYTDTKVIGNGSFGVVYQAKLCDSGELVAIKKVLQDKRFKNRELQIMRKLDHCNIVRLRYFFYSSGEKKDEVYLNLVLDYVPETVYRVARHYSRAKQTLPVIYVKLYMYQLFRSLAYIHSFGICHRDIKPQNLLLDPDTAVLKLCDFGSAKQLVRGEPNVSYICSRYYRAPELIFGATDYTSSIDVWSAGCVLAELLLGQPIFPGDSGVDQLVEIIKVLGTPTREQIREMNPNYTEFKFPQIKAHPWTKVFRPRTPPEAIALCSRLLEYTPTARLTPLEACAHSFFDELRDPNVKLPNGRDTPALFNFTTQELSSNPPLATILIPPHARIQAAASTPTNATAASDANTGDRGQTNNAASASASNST

What does the source list for CC(=O)N1CCC(NC(=O)c2ccc3cc2OCCCCCCOc2cc(ccc2F)-c2nc(ncc2F)N3)CC1?
microsomal CLint [1]: 14.2 µL/min/mg; clearance [2]: 13.3 mL/min/kg; Vd [3]: 30.7 L/kg; clearance [4]: 83.3 mL/min/kg; AUC(0-t) [5]: 754 ng·h/mL; half-life [6]: 3.5 h; concentration at 0.5 h [7]: 6650 ng/mL; inhibition [8]: 50.2%; inhibition [9]: 94.1%; inhibition [10]: 82.5%; inhibition [11]: 9.68%; inhibition [12]: 33.1%; inhibition at 0.025 µM [13]: 100%; Activity [14]: 1.46%; viability at 2 µM [15]: 51%; Activity [16]: 22%; Activity [17]: 0.97%; IC50 [18]: 0.0316 µM; IC50 [19]: 0.0043 µM; IC50 [20]: 0.0146 µM; inhibition [21]: Active; inhibition [22]: Active; inhibition [23]: Active; IC50 [24]: < 0.01 µM; inhibition [25]: inactive; inhibition in vivo at 15 mg/kg (NCI-H1975): 65.8%; Activity [26]: Non-toxic; Activity [27]: Non-toxic; Activity [28]: Non-toxic; Activity [29]: Non-toxic; inhibition in vivo at 5 mg/kg [30]: 71.5%; inhibition (Mus musculus): Active; Activity [31]: Non-toxic
